Experiments:
Y464D-PPARα = target: T1, Y464D-PPARα (Mus musculus, UniProt P23204, Y464D); assay: Thermal shift assay, Y464D-PPARα with ligands; type: binding
T1 construct: the entire mouse GFP-Ppara gene (GFP-FLPpara) and three different mutated genes were cloned; GFP; made in house; host or cells: not clearly stated (lentivirus packaged in HEK293FT cells)
T1 sequence (P23204 1-468 Y464D): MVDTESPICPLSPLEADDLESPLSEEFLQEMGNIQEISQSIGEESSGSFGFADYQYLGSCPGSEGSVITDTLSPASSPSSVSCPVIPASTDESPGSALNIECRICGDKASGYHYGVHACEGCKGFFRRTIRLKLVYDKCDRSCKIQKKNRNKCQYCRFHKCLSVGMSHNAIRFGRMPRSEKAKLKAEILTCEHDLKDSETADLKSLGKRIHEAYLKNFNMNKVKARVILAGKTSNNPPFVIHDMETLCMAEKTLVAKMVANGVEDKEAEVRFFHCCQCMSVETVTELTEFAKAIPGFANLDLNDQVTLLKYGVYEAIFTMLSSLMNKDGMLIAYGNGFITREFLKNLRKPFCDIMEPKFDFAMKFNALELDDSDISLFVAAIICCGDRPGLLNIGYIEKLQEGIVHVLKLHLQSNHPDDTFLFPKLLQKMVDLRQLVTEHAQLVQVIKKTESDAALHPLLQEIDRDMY
Procedure: Lentivirus-mediated de novo expression studies were performed, where wild type full-length (GFP-FLPpara) was overexpressed and three different LBD-mutated PPARα (GFP-Y314D, GFP-Y464D and GFP-Y314D/Y464D Ppara) recombinant proteins (FIG. 9D) were expressed in neurons followed by binding analyses with three endogenous ligands. Briefly, site directed mutagenesis was performed in the mouse PPARα with Y314 and Y464 residues replaced separately or together with aspartate (D). After that, the entire mouse GFP-Ppara gene (GFP-FLPpara) and three different mutated genes were cloned in the pLenti6/V5-TOPO lentiviral expression vector (FIG. 3D), packaged in lentivirus particle with HEK293FT cells, purified full length and mutated PPARα proteins in a GFP-affinity column, and finally thermal shift assays were performed in order to analyze their conformational stability. […] After 48 h of transduction, the cells were homogenized, passed through GFP-affinity column, eluted, fractionated with chloroform-methanol, and finally analyzed by GC-MS for the detection of ligands. […] On the other hand, mutation of the Y464 completely knocked down the ligand binding affinity as we observed profound loss of ligand binding in both lenti-GFP-Y464D-Ppara (FIG. 3K, FIG. 9K) and lenti-GFP-Y314D/Y464D-Ppara (FIG. 3L, FIG. 9L)-transduced Ppara-null neurons. Throughout these analyses, we used 2,4-bis (α, α-dimethyl benzyl) phenol as an internal standard (Supplementary FIG. 5A-F). We normalized peak area of different ligands with that of internal standard and then quantified the binding affinity of these ligands with different construct of PPARα by peak integration statistics (Table 1).
Thermal shift assays were performed in Applied Biosystems 7500 standard real-time thermal cycler machine with commercially available thermal shift dye kit (Life technologies; Cat #4461146). For each reaction, purified protein (0.5 μg to 1 μg) was added to 18 μL of thermal shift buffer provided with the kit, and 1-2 μL of dye. […]

CREB = assay: Immunoblot of CREB in Ppara-null hippocampal neurons transduced with Ppara constructs; type: cell-based, mouse
Procedure: (FIG. 17A) Immunoblot analyses followed by densitometric analyses of NR2A (FIG. 17B), GluR1 (FIG. 17C) and CREB (FIG. 17D) were performed in Ppara-null and WT hippocampal neurons treated with 5 μM HEX, 5 μM OCT and 50 μM HMB. Data are mean±SD of three different experiments. ^ap<0.05 versus WT-control. Immunocytochemical analyses of NR2A (FIG. 17E) and GluR1 (FIG. 17F) in WT and Ppara-null hippocampal neurons treated with HEX, OCT and HMB. Hippocampal neurons were transduced with lenti-GFP for 48 h followed by treatment with different ligands. Immunoblot analyses followed by relative densitometric analyses of CREB in Ppara-null hippocampal neurons transduced with lentivirions containing different Ppara constructs followed by treatment with HEX (FIG. 17G-H), OCT (FIG. 17I-J) and HMB (FIG. 17K-L). Bands were scanned and presented as relative to control (FIG. 17H, HEX; FIG. 17J, OCT; FIG. 17L, HMB). Data are mean±SD of three different experiments. ^ap<0.05 vs FLPpara control.
For whole-cell and tissue lysates, samples were homogenized in RIPA buffer containing protease and phosphatase inhibitors (Sigma), passed 10 times through a 26-gauge needle, rotated end over end for 30 min at 4° C., and centrifuged for 10 min at 18,000×g. The supernatant was aliquoted and stored at −80° C. until use. Protein concentrations were determined using a NanoDrop 2000 (Thermo Fisher), and 15-30 μg sample was heat-denatured and resolved on 10% or 12% polyacrylamide-SDS gels, transferred to 0.45 μm nitrocellulose membranes under semidry conditions (15V for 12 min). Membranes were blocked for 1 h with blocking buffer (Li-Cor), incubated with primary antibodies overnight at 4° C. under shaking conditions, washed, incubated with IR-dye-labeled secondary antibodies (1:17,000; Li-Cor) for 45 min at room temperature, washed, and visualized with the Odyssey Infrared Imaging System (Li-Cor). Blots were converted to grayscale and then binary, analyzed using Fiji, and normalized to appropriate loading controls.

SMILES	effect on Tm of Y464D-PPARα (Y464D-PPARα)	expression of CREB (CREB; FL-Ppara)	expression of CREB (CREB; lenti-Y314D-Ppara)	expression of CREB (CREB; lenti-Y464D-Ppara)	expression of CREB (CREB; lenti-Y464D/Y314D-Ppara)
CCCCCCCCCCCCCCCC(N)=O [HEX, hexadecanamide]	did not alter the Tm	stimulated	only partially restored	remained unable to increase	remained unable to increase
CCOC(=O)C(C)(C)C(C)O (stereo not drawn) [HMB]	did not alter the Tm	stimulated	only partially restored	remained unable to increase	remained unable to increase
CCCCCCCCC=CCCCCCCCC(N)=O [OCT, 9-octadecenamide]	did not alter the Tm	stimulated	only partially restored	remained unable to increase	remained unable to increase

— patent publication US10617664B2, “Brain derived PPARα ligands” (Rush University Medical Center, priority 2015, dated 2020)
